In patent US20150105252A1, “SUBSTITUTED PYRAZOLES AS HERBICIDES” (E I DU PONT DE NEMOURS AND COMPANY, priority 2013, published 2015):

What was measured:
Conditions in all cases: scale 0 to 100
[1] = test system: buckwheat, wild; experiment: Test D preemergence; type: in vivo, Polygonum convolvulus
Source text: (§1) Seeds of plant species selected from bluegrass (annual bluegrass, Poa annua), blackgrass (Alopecurus myosuroides), canarygrass (littleseed canarygrass, Phalaris minor), chickweed (common chickweed, Stellaria media), galium (catchweed bedstraw, Galium aparine), bromegrass, downy (downy bromegrass, Bromus tectorum), field poppy (Papaver rhoeas), field violet (Viola arvensis), foxtail, green (green foxtail, Setaria viridis), deadnettle (henbit deadnettle, Lamium amplexicaule), ryegrass, Italian (Italian ryegrass, Lolium multiflorum), kochia (Kochia scoparia), lambsquarters (Chenopodium album), oilseed rape (Brassica napus), pigweed (redroot pigweed, Amaranthus retroflexus), chamomile (scentless chamomile, Matricaria inodora), speedwell (bird's-eye speedwell, Veronica persica), barley, spring (spring barley, Hordeum vulgare), wheat, spring (spring wheat, Triticum aestivum), buckwheat, wild (wild buckwheat, Polygonum convolvulus), mustard, wild (wild mustard, Sinapis arvensis), oat, wild (wild oat, Avena fatua), radish, wild (wild radish, Raphanus raphanistrum), windgrass (Apera spica-venti), Russian thistle (Salsola kali), barley, winter (winter barley, Hordeum vulgare), and wheat, winter (winter wheat, Triticum aestivum) were planted into a silt loam soil and treated preemergence with test chemicals formulated in a non-phytotoxic solvent mixture which included a surfactant.
(§2) At the same time, these species were planted in pots containing Redi-Earth® planting medium (Scotts Company, 14111 Scottslawn Road, Marysville, Ohio 43041) comprising spaghnum peat moss, vermiculite, wetting agent and starter nutrients and treated with postemergence applications of the test chemicals formulated in the same manner. Plants ranged in height from 2 to 18 cm (1- to 4-leaf stage). Treated plants and controls were maintained in a controlled growth environment for 14 to 21 days after which time all species were compared to controls and visually evaluated. Plant response ratings, summarized in Table D, are based on a scale of 0 to 100 where 0 is no effect and 100 is complete control. A dash (-) response means no test result.

[2] = test system: barley, winter; experiment: Test D postemergence; type: in vivo, Hordeum vulgare
Source text: as §1, §2

[3] = test system: barley, spring; experiment: Test D postemergence; type: in vivo, Hordeum vulgare
Source text: as §1, §2

[4] = test system: oat, wild; experiment: Test D postemergence; type: in vivo, Avena fatua
Source text: as §1, §2

[5] = test system: bromegrass, downy; experiment: Test D preemergence; type: in vivo, Bromus tectorum
Source text: as §1, §2

[6] = test system: bromegrass, downy; experiment: Test D postemergence; type: in vivo, Bromus tectorum
Source text: as §1, §2

[7] = test system: foxtail, green; experiment: Test D preemergence; type: in vivo, Setaria viridis
Source text: as §1, §2

CCc1cc(C(=O)NC(C)C)nn1Cc1ccnc(C(F)(F)F)c1 [Compound 103]
Plant response rating, Buckwheat, Wild ([1]; 31 g ai/ha): 75
Plant response rating, Buckwheat, Wild ([1]; 62 g ai/ha): 100
Plant response rating, Buckwheat, Wild ([1]; 125 g ai/ha): 100
Plant response rating, Buckwheat, Wild ([1]; 250 g ai/ha): 100
Barley, Winter plant response rating ([2]; Postemergence, 31 g ai/ha): 0
Barley, Winter plant response rating ([2]; Postemergence, 125 g ai/ha): 5
Barley, Winter plant response rating ([2]; Postemergence, 250 g ai/ha): 15
Barley, Winter plant response rating ([2]; postemergence, 62 g ai/ha): 5
Barley, Spring plant response rating ([3]; Postemergence, 31 g ai/ha): 0
Barley, Spring plant response rating ([3]; Postemergence, 125 g ai/ha): 10
Barley, Spring plant response rating ([3]; Postemergence, 250 g ai/ha): 15
Barley, Spring plant response rating ([3]; postemergence, 62 g ai/ha): 0
Oat, Wild plant response rating ([4]; Postemergence, 31 g ai/ha): 10
Oat, Wild plant response rating ([4]; Postemergence, 125 g ai/ha): 20
Oat, Wild plant response rating ([4]; Postemergence, 250 g ai/ha): 25
Oat, Wild plant response rating ([4]; postemergence, 62 g ai/ha): 15
Plant response rating, Bromegrass, Downy ([5]; 31 g ai/ha): 5
Plant response rating, Bromegrass, Downy ([5]; 62 g ai/ha): 10
Plant response rating, Bromegrass, Downy ([5]; 125 g ai/ha): 40
Plant response rating, Bromegrass, Downy ([5]; 250 g ai/ha): 85
Bromegrass, Downy plant response rating ([6]; Postemergence, 31 g ai/ha): 5
Bromegrass, Downy plant response rating ([6]; Postemergence, 125 g ai/ha): 15
Bromegrass, Downy plant response rating ([6]; Postemergence, 250 g ai/ha): 15
Bromegrass, Downy plant response rating ([6]; postemergence, 62 g ai/ha): 10
Plant response rating, Foxtail, Green ([7]; 31 g ai/ha): 20
Plant response rating, Foxtail, Green ([7]; 62 g ai/ha): 100
Plant response rating, Foxtail, Green ([7]; 125 g ai/ha): 100
Plant response rating, Foxtail, Green ([7]; 250 g ai/ha): 100

CCCc1cc(C(=O)NCC(F)(F)F)nn1Cc1cc(C(F)(F)F)nn1C [Compound 138]
Plant response rating, Buckwheat, Wild ([1]; 31 g ai/ha): 45
Plant response rating, Buckwheat, Wild ([1]; 62 g ai/ha): 50
Plant response rating, Buckwheat, Wild ([1]; 125 g ai/ha): 70
Plant response rating, Buckwheat, Wild ([1]; 250 g ai/ha): 100
Barley, Winter plant response rating ([2]; Postemergence, 31 g ai/ha): 15
Barley, Winter plant response rating ([2]; Postemergence, 125 g ai/ha): 20
Barley, Winter plant response rating ([2]; Postemergence, 250 g ai/ha): 40
Barley, Winter plant response rating ([2]; postemergence, 62 g ai/ha): 15
Barley, Spring plant response rating ([3]; Postemergence, 31 g ai/ha): 15
Barley, Spring plant response rating ([3]; Postemergence, 125 g ai/ha): 25
Barley, Spring plant response rating ([3]; Postemergence, 250 g ai/ha): 40
Barley, Spring plant response rating ([3]; postemergence, 62 g ai/ha): 15
Oat, Wild plant response rating ([4]; Postemergence, 31 g ai/ha): 20
Oat, Wild plant response rating ([4]; Postemergence, 125 g ai/ha): 25
Oat, Wild plant response rating ([4]; Postemergence, 250 g ai/ha): 60
Oat, Wild plant response rating ([4]; postemergence, 62 g ai/ha): 20
Plant response rating, Bromegrass, Downy ([5]; 31 g ai/ha): 10
Plant response rating, Bromegrass, Downy ([5]; 62 g ai/ha): 15
Plant response rating, Bromegrass, Downy ([5]; 125 g ai/ha): 20
Plant response rating, Bromegrass, Downy ([5]; 250 g ai/ha): 65
Bromegrass, Downy plant response rating ([6]; Postemergence, 31 g ai/ha): 10
Bromegrass, Downy plant response rating ([6]; Postemergence, 125 g ai/ha): 30
Bromegrass, Downy plant response rating ([6]; Postemergence, 250 g ai/ha): 20
Bromegrass, Downy plant response rating ([6]; postemergence, 62 g ai/ha): 10
Plant response rating, Foxtail, Green ([7]; 62 g ai/ha): 100
Plant response rating, Foxtail, Green ([7]; 125 g ai/ha): 100
Plant response rating, Foxtail, Green ([7]; 250 g ai/ha): 100

CCOc1cc(C(=O)NC2CC2)nn1Cc1ccnc(C(F)(F)F)c1 [Compound 189]
Plant response rating, Buckwheat, Wild ([1]; 31 g ai/ha): 100
Plant response rating, Buckwheat, Wild ([1]; 62 g ai/ha): 100
Plant response rating, Buckwheat, Wild ([1]; 125 g ai/ha): 100
Plant response rating, Buckwheat, Wild ([1]; 250 g ai/ha): 100
Barley, Winter plant response rating ([2]; Postemergence, 31 g ai/ha): 15
Barley, Winter plant response rating ([2]; Postemergence, 125 g ai/ha): 20
Barley, Winter plant response rating ([2]; Postemergence, 250 g ai/ha): 20
Barley, Winter plant response rating ([2]; postemergence, 62 g ai/ha): 15
Barley, Spring plant response rating ([3]; Postemergence, 31 g ai/ha): 10
Barley, Spring plant response rating ([3]; Postemergence, 125 g ai/ha): 15
Barley, Spring plant response rating ([3]; Postemergence, 250 g ai/ha): 25
Barley, Spring plant response rating ([3]; postemergence, 62 g ai/ha): 10
Oat, Wild plant response rating ([4]; Postemergence, 31 g ai/ha): 20
Oat, Wild plant response rating ([4]; Postemergence, 125 g ai/ha): 30
Oat, Wild plant response rating ([4]; Postemergence, 250 g ai/ha): 35
Oat, Wild plant response rating ([4]; postemergence, 62 g ai/ha): 20
Plant response rating, Bromegrass, Downy ([5]; 31 g ai/ha): 0
Plant response rating, Bromegrass, Downy ([5]; 62 g ai/ha): 15
Plant response rating, Bromegrass, Downy ([5]; 125 g ai/ha): 20
Plant response rating, Bromegrass, Downy ([5]; 250 g ai/ha): 55
Bromegrass, Downy plant response rating ([6]; Postemergence, 31 g ai/ha): 15
Bromegrass, Downy plant response rating ([6]; Postemergence, 125 g ai/ha): 15
Bromegrass, Downy plant response rating ([6]; Postemergence, 250 g ai/ha): 20
Bromegrass, Downy plant response rating ([6]; postemergence, 62 g ai/ha): 15
Plant response rating, Foxtail, Green ([7]; 62 g ai/ha): 100
Plant response rating, Foxtail, Green ([7]; 125 g ai/ha): 100
Plant response rating, Foxtail, Green ([7]; 250 g ai/ha): 100
